Earlier results as cited in patent US12208072B2, “Compositions for removing necrotic or infected tissues from body surface lesions and from oral cavity” (DEBx Medical Holding B.V., priority 2019, dated 2025).

Key:
[1] = for Ka1: first dissociation constant; for Ka2: second dissociation constant
[2] = 25° C.

Molecule	Ka1 [1]	Ka2 [1]	pKa [2]
OB(O)O [Boric]	5.81 × 10^−10	–	–
O=C(O)O [Carbonic]	4.44 × 10^−7	4.69 × 10^−11	–
OCl [Hypochlorous]	3.0 × 10^−8	–	–
O=C(O)CC(O)C(=O)O (stereo not drawn) [Malic]	3.48 × 10^−4	8.00 × 10^−6	–
O=[N+]([O-])O [Nitric]	–	–	−1.4
OP(O)O [Phosphorous]	3 × 10^−2	1.62 × 10^−7	–
O=C(O)CCC(=O)O [Succinic]	6.21 × 10^−5	2.31 × 10^−6	–
Anilinium ion	2.50 × 10^−5	–	–
